Results on two molecules are retold here after patent publication US10947274B1 (priority 2018, dated 2021).

The target in one assay is α3β4 nAChR (Rattus norvegicus, UniProt P04757+P12392). Particulars: cited from earlier work.
For another assay, the target named is rat α9α10 nAChR (Rattus norvegicus, UniProt P43144+Q9JLB5). The assay can be described thus: cell-based.

Where a SMILES comes first, the peptide text is derived from it. Bridges are numbered along the chain shown (N, C = ends). [ ]: non-standard residue; d: D form. Sec = N[C@@H](C[SeH])C(=O)O

rat α9α10 nAChR, sequence (P43144 26-479 limits assumed): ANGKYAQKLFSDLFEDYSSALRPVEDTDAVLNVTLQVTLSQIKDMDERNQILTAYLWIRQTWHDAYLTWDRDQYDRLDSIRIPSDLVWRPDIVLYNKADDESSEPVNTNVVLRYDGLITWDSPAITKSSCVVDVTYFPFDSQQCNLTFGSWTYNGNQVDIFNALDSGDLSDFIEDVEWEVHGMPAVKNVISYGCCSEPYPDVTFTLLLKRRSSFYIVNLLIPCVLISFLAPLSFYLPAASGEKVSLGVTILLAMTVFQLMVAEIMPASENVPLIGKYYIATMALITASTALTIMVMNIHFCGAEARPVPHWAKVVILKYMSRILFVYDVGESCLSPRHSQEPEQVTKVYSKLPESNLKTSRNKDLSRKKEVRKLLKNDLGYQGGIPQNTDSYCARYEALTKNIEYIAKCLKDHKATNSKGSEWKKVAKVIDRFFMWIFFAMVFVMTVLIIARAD
rat α9α10 nAChR, sequence (Q9JLB5 25-447 limits assumed): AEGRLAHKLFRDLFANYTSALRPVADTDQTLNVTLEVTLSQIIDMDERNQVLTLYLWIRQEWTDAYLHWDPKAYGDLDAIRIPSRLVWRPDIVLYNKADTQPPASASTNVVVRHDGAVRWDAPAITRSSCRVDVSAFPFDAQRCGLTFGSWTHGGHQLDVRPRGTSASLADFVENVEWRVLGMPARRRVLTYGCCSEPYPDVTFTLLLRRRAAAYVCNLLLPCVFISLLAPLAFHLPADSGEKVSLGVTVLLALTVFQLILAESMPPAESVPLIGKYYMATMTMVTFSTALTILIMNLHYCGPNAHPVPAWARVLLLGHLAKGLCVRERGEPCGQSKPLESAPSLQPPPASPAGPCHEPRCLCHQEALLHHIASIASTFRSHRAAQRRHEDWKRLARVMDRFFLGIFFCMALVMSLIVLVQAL
α3β4 nAChR, sequence (P04757 26-499 limits assumed): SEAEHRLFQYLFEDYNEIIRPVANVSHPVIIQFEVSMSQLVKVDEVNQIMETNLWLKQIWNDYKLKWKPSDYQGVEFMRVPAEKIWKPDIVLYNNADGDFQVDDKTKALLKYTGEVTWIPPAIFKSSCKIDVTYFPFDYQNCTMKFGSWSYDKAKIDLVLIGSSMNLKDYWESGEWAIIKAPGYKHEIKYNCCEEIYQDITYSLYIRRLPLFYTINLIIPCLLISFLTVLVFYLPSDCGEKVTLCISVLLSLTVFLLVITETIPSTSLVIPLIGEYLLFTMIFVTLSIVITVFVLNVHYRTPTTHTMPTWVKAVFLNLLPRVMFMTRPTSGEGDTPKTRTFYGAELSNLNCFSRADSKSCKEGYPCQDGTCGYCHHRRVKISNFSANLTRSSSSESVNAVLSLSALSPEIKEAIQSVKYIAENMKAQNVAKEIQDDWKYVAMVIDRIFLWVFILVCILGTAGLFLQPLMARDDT
α3β4 nAChR, sequence (P12392 21-495 limits assumed): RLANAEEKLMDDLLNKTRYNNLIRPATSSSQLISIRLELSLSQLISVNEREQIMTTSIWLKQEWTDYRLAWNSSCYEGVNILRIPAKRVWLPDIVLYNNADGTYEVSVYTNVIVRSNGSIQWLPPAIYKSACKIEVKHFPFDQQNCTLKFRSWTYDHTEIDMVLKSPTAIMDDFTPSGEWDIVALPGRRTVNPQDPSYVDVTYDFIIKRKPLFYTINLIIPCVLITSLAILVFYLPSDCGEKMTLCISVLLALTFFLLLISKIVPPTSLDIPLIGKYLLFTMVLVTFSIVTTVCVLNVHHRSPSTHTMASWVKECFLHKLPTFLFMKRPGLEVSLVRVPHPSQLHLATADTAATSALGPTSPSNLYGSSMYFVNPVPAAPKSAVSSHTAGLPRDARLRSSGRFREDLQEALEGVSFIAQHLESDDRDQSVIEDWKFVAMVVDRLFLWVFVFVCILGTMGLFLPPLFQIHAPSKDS

One may read the IC50 as the concentration at which inhibition is half-maximal. Regarding α-conotoxin AuIB, the IC50 at α3β4 nAChR is 3.1 ± 1 µM.
In the case of `N=C(N)NCCC[C@H](NC(=O)[C@@H]1C[Se][Se]C[C@@H]2NC(=O)[C@@H](NC(=O)CN)CSSC[C@H](NC(=O)[C@H](CCCNC(=N)N)NC(=O)[C@@H]3CCCN3C(=O)[C@H](CC(=O)O)NC(=O)[C@H](CO)NC2=O)C(=O)N[C@@H](CCCNC(=N)N)C(=O)N[C@@H](Cc2ccc(O)cc2)C(=O)N[C@@H](CCCNC(=N)N)C(=O)N1)C(=O)O` [[C3 Sec;C12Sec] RgIA] (H-GC[Sec]SDPRCRYR[Sec]R-OH; disulfide 2-8; diselenide 3-12), on rat α9α10 nAChR, the “% block” value is on record as <10 nM (81.9 ± 1.8% block at 10 nM) and the IC50 was < 0.01 µM.
